Assay results reported in patent US5686495A, “Substituted hydrazinedicarboximidamides and methods of use thereof” (Cambridge NeuroScience, Inc., priority 1995, dated 1997).
Where a name gives a salt, the structure may show the parent alone. Read-outs that look alike come from different tables or passages of the source.

Tested on: potassium-stimulated 45Ca uptake of synaptosomes
Experiment: Potassium-stimulated 45Ca uptake into synaptosomes
Type: cell-based, rat
Procedure: Several compounds were also tested to determine whether the Ca^2+ dependent and independent components of glutamate release are related to the blockage of ^45 Ca uptake. Calcium uptake is one step in the cascade of events which occur in neuronal cell death from ischemia. See Bassaclough and Leach, Current Patents Ltd., 2-27. The Ca-flux protocol is as follows. Rat brain synaptosomes were prepared according to Hajos, Brain Res. 93:485 (1975). Synaptosomes were suspended in low potassium "LK" buffer (containing 3 mM KCl) at 2 mg/ml. […] After 5 seconds, the ^45 Ca flux was stopped with 0.9 ml quench solution (LK+10 mM EGTA). The solution was filtered under vacuum and the filters washed with 15 ml of quench buffer. The effect of drug is expressed as % inhibition (or block) of control potassium-stimulated ^45 Ca influx. This method is an adaptation of the method disclosed by Nachsen and Blaustein, J. Physiol. 361:251-268 (1985).

[1] = Rattus norvegicus, read-out: Inhibition of 45Ca Uptake, % Inhibition @ 10 uM (SEM)
[2] = 10 μM; potassium-stimulated uptake of calcium into synaptosomes
[3] = Rattus norvegicus, read-out: % Uptake vs. Control
[4] = Rattus norvegicus; read-out: Inhibition of 45Ca Uptake, IC50

| Compound | inhibition at 10 µM [1] | activity at 10 µM [3] | further results |
| --- | --- | --- | --- |
| N=C(Nc1cccc2ccccc12)NC12CC3CC(CC(C3)C1)C2 [N-(Adamantan-1-yl)-N' (α-naphthyl)guanidine] | 31% | – | – |
| N=C(Nc1cccc2nsnc12)NC12CC3CC(CC(C3)C1)C2 [N-(Adamantan-1-yl)-N'-(4,5-benzo-2-thia-1,3-diazol-6-yl)guanidine] | – | – | % Uptake vs. Control [2]: 98% |
| N=C(Nc1cccc2ccccc12)NN1CCCCC1 [N-(α-Naphthyl)-N'-(1-piperidinyl)-guanidine] | – | 131% | – |
| N=C(NC1CCc2ccccc21)NC1CCc2ccccc21 (stereo not shown) [N,N'-Bis(indan-1-yl)-guanidine] | – | 88% | – |
| CC(C)(C)c1ccc(NC(=N)Nc2ccc(C(C)(C)C)cc2)cc1 [N,N'-Bis(p-tert.-butylphenyl) guanidine] | 47% | – | – |
| N=C(NC1C2CC3CC(C2)CC1C3)NC12CC3CC(CC(C3)C1)C2 (stereo not shown) [N-(Adamantan-1-yl)-N'-(adamantan-2-yl)guanidine] | 49% | – | – |
| N-(α-Naphthyl)-N'-(4-phenylpiperidinyl)-guanidine | – | – | % Uptake vs. Control [2]: 79% |
| N=C(Nc1ccc2cccc3c2c1CC3)Nc1ccc2cccc3c2c1CC3 [N,N'-Bis (3-acenaphthyl)guanidine, N,N'-Bis (3-Acenaphthyl)Guanidine Hydrobromide] | 36% | – | IC50 (Rattus norvegicus, read-out: Inhibition of 45Ca Uptake, IC50): 11 µM |
| N=C(Nc1ccc2c3c(cccc13)CC2)NC12CC3CC(CC(C3)C1)C2 [N-(5-acenaphthyl)-N'-(adamant-1-yl)guanidine] | 47 ± 11% | – | IC50 [4]: 9.7 ± 3 µM |
| CCc1cccc(N(C)C(=N)Nc2cccc3ccc(=O)oc23)c1 [N-(8-Aminocoumarinyl)-N'-(m-ethylphenyl)-N'-methyl-guanidine] | – | 151% | – |
| N=C(NN1CCCc2ccccc21)NN1CCCc2ccccc21 [N,N'-Bis(1,2,3,4-tetrahydro-1-quinolinyl)-guanidine] | – | 87% | – |
| CCc1cccc(N2CCN(c3cccc(CC)c3)C2=N)c1 [N,N'-Bis(m-ethylphenyl)-2-imino-imidazolidine] | – | 101% | – |
| CC(C)c1ccc(NC(=N)Nc2ccc(C(C)C)cc2)cc1 [N,N'-Di-(4-isopropylphenyl)guanidine] | 48% | – | IC50 [4]: 19 ± 7 µM |
| N=C(NCC12CC3CC(CC(C3)C1)C2)NCC12CC3CC(CC(C3)C1)C2 [N-N'-Bis(1-Adamantanemethyl)-guanidine] | – | 111% | – |
| CC(C)c1ccc(NC(=N)Nc2ccc3c4c(cccc24)CC3)cc1 [N-(3- and 5-Acenaphthyl)-N'-(4-isopropylphenyl)-guanidine.HCl] | 68% | – | IC50 [4]: 6.5 ± 1 µM |
| Cc1ccccc1N1CCCCN(c2ccccc2C)C1=N [N,N'-Bis(o-tolyl)-N,N'-butanyl(bridge)-guanidine] | – | 119% | – |
| N=C(Nc1cccc2ccccc12)Nc1ccc2c3c(cccc13)CC2 [N-(5-acenaphthyl)-N'-(1-naphthyl)guanidine] | 40 ± 6% | – | IC50 [4]: 16.2 ± 0.4 µM |
| CCOC(=O)c1cc2cccc(NC(=N)N(C)c3cccc(CC)c3)c2o1 [N-(m-Ethylphenyl)-N'-(2-carboethoxy-7-benzofuranyl)-N-methyl guanidine] | – | 71% | – |
| CCc1cccc(NC(=NC#N)Nc2cccc3ccccc23)c1 [N-(α-Naphthyl)-N'-(m-ethylphenyl)-N"-cyano-guanidine] | – | 95% | – |
| N=C(NC1CCCCC1)NN1CCCCC1 [N-(Cyclohexyl)-N'-(1-piperidinyl)-guanidine] | – | 108% | – |
